Data taken from PubChem BioAssay (NCI).
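48-hour exposure; five concentrations; linearly interpolated endpoints. GI50 is the concentration that inhibits growth by half. TGI: concentration producing complete growth inhibition.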

Experiments:
Experiment in all cases: NCI-60 cell line screen, 48 h
BT-549 breast = system: BT-549 breast
MOLT-4 leukemia = system: MOLT-4 leukemia
SNB-75 CNS = system: SNB-75 CNS
UO-31 renal = system: UO-31 renal
UACC-257 melanoma = system: UACC-257 melanoma
LOX IMVI melanoma = system: LOX IMVI melanoma
A549 NSCLC = system: A549 NSCLC
K-562 leukemia = system: K-562 leukemia
OVCAR-3 ovarian = system: OVCAR-3 ovarian
NCI-H460 lung = system: NCI-H460 lung
TK-10 renal = system: TK-10 renal
HOP-92 NSCLC = system: HOP-92 NSCLC
HS 578T breast = system: HS 578T breast
ACHN renal = system: ACHN renal
CAKI-1 renal = system: CAKI-1 renal
OVCAR-4 ovarian = system: OVCAR-4 ovarian
HT29 colon = system: HT29 colon
M14 melanoma = system: M14 melanoma
SK-MEL-2 melanoma = system: SK-MEL-2 melanoma
SK-MEL-28 melanoma = system: SK-MEL-28 melanoma
SK-OV-3 ovarian = system: SK-OV-3 ovarian
SK-MEL-5 melanoma = system: SK-MEL-5 melanoma
A498 renal = system: A498 renal
HL-60(TB) leukemia = system: HL-60(TB) leukemia
PC-3 prostate = system: PC-3 prostate
MCF7 breast = system: MCF7 breast
RXF 393 renal = system: RXF 393 renal
T-47D breast = system: T-47D breast
MALME-3M melanoma = system: MALME-3M melanoma
HCT-116 colon = system: HCT-116 colon
COLO 205 colon = system: COLO 205 colon
DU-145 prostate = system: DU-145 prostate
RPMI-8226 leukemia = system: RPMI-8226 leukemia
786-0 renal = system: 786-0 renal
SF-539 CNS = system: SF-539 CNS
UACC-62 melanoma = system: UACC-62 melanoma
SR leukemia = system: SR leukemia
HCC-2998 colon = system: HCC-2998 colon
SF-268 CNS = system: SF-268 CNS
MDA-MB-231 breast = system: MDA-MB-231 breast
HCT-15 colon = system: HCT-15 colon
NCI-H522 lung = system: NCI-H522 lung
OVCAR-8 ovarian = system: OVCAR-8 ovarian
NCI-H226 lung = system: NCI-H226 lung
SF-295 CNS = system: SF-295 CNS
U251 CNS = system: U251 CNS
MDA-MB-435 = system: MDA-MB-435
SNB-19 CNS = system: SNB-19 CNS
NCI/ADR-RES ovarian = system: NCI/ADR-RES ovarian
OVCAR-5 ovarian = system: OVCAR-5 ovarian
SW-620 colon = system: SW-620 colon
CCRF-CEM leukemia = system: CCRF-CEM leukemia

Compound: O=C(NO)c1ccc(Cn2c(=O)n(-c3ccccc3F)c(=O)c3ccccc32)cc1
- GI50 (BT-549 breast): 1900 nM
- TGI (BT-549 breast): 4130 nM
- GI50 (MOLT-4 leukemia): 2340 nM
- TGI (MOLT-4 leukemia): > 100000 nM
- GI50 (SNB-75 CNS): 1450 nM
- TGI (SNB-75 CNS): 4780 nM
- GI50 (UO-31 renal): 1830 nM
- TGI (UO-31 renal): 4750 nM
- GI50 (UACC-257 melanoma): 1250 nM
- TGI (UACC-257 melanoma): 3220 nM
- GI50 (LOX IMVI melanoma): 1710 nM
- TGI (LOX IMVI melanoma): 3200 nM
- GI50 (A549 NSCLC): 2740 nM
- TGI (A549 NSCLC): 7830 nM
- GI50 (K-562 leukemia): 2620 nM
- TGI (K-562 leukemia): > 100000 nM
- GI50 (OVCAR-3 ovarian): 2150 nM
- TGI (OVCAR-3 ovarian): 6410 nM
- GI50 (NCI-H460 lung): 1900 nM
- TGI (NCI-H460 lung): 10400 nM
- GI50 (TK-10 renal): 1430 nM
- TGI (TK-10 renal): 5160 nM
- GI50 (HOP-92 NSCLC): 1770 nM
- TGI (HOP-92 NSCLC): 4750 nM
- GI50 (HS 578T breast): 1900 nM
- TGI (HS 578T breast): 11900 nM
- GI50 (ACHN renal): 2040 nM
- TGI (ACHN renal): 5590 nM
- GI50 (CAKI-1 renal): 2250 nM
- TGI (CAKI-1 renal): 7150 nM
- GI50 (OVCAR-4 ovarian): 1900 nM
- TGI (OVCAR-4 ovarian): 12900 nM
- GI50 (HT29 colon): 2020 nM
- TGI (HT29 colon): 10500 nM
- GI50 (M14 melanoma): 1530 nM
- TGI (M14 melanoma): 3050 nM
- GI50 (SK-MEL-2 melanoma): 1290 nM
- TGI (SK-MEL-2 melanoma): 3430 nM
- GI50 (SK-MEL-28 melanoma): 1770 nM
- TGI (SK-MEL-28 melanoma): 4250 nM
- GI50 (SK-OV-3 ovarian): 1960 nM
- TGI (SK-OV-3 ovarian): 4870 nM
- GI50 (SK-MEL-5 melanoma): 1510 nM
- TGI (SK-MEL-5 melanoma): 2960 nM
- GI50 (A498 renal): 1020 nM
- TGI (A498 renal): 2570 nM
- GI50 (HL-60(TB) leukemia): 3480 nM
- TGI (HL-60(TB) leukemia): > 100000 nM
- GI50 (PC-3 prostate): 1700 nM
- TGI (PC-3 prostate): 4310 nM
- GI50 (MCF7 breast): 2210 nM
- TGI (MCF7 breast): > 100000 nM
- GI50 (RXF 393 renal): 1330 nM
- TGI (RXF 393 renal): 2900 nM
- GI50 (T-47D breast): 1380 nM
- TGI (T-47D breast): 5920 nM
- GI50 (MALME-3M melanoma): 892 nM
- TGI (MALME-3M melanoma): 3160 nM
- GI50 (HCT-116 colon): 1140 nM
- TGI (HCT-116 colon): 3190 nM
- GI50 (COLO 205 colon): 1390 nM
- TGI (COLO 205 colon): 3760 nM
- GI50 (DU-145 prostate): 2090 nM
- TGI (DU-145 prostate): > 100000 nM
- GI50 (RPMI-8226 leukemia): 1190 nM
- TGI (RPMI-8226 leukemia): 18900 nM
- GI50 (786-0 renal): 1820 nM
- TGI (786-0 renal): 3650 nM
- GI50 (SF-539 CNS): 1530 nM
- TGI (SF-539 CNS): 4580 nM
- GI50 (UACC-62 melanoma): 1240 nM
- TGI (UACC-62 melanoma): 3020 nM
- GI50 (SR leukemia): 1560 nM
- TGI (SR leukemia): > 100000 nM
- GI50 (HCC-2998 colon): 1420 nM
- TGI (HCC-2998 colon): 2960 nM
- GI50 (SF-268 CNS): 1740 nM
- TGI (SF-268 CNS): 4010 nM
- GI50 (MDA-MB-231 breast): 3030 nM
- TGI (MDA-MB-231 breast): 7890 nM
- GI50 (HCT-15 colon): 1920 nM
- TGI (HCT-15 colon): 4420 nM
- GI50 (NCI-H522 lung): 542 nM
- TGI (NCI-H522 lung): 2050 nM
- GI50 (OVCAR-8 ovarian): 1050 nM
- TGI (OVCAR-8 ovarian): 5110 nM
- GI50 (NCI-H226 lung): 1430 nM
- TGI (NCI-H226 lung): 3270 nM
- GI50 (SF-295 CNS): 1660 nM
- TGI (SF-295 CNS): 3290 nM
- GI50 (U251 CNS): 1550 nM
- TGI (U251 CNS): 3160 nM
- GI50 (MDA-MB-435): 1550 nM
- TGI (MDA-MB-435): 3260 nM
- GI50 (SNB-19 CNS): 2540 nM
- TGI (SNB-19 CNS): 18200 nM
- GI50 (NCI/ADR-RES ovarian): 2540 nM
- TGI (NCI/ADR-RES ovarian): 43000 nM
- GI50 (OVCAR-5 ovarian): 1450 nM
- TGI (OVCAR-5 ovarian): 7000 nM
- GI50 (SW-620 colon): 1590 nM
- TGI (SW-620 colon): 4370 nM
- GI50 (CCRF-CEM leukemia): 2070 nM
- TGI (CCRF-CEM leukemia): > 100000 nM
